Test results reported in patent publication US20240199651A1, “ANTIBACTERIAL COMPOUNDS” (JANSSEN SCIENCES IRELAND UNLIMITED COMPANY, priority 2021, published 2024).
pIC50: −log10 of the molar value. In brackets after ≈: the same amount, converted by molar mass. Where two headings read alike, the source gives them in different places.

Experiments:
[1] = LM CLint (microsomal stability), mouse; format: in vitro ADME; conditions: microsomes
Text: (§1) The compounds of the invention/examples may have advantages associated with in vitro potency, kill kinetics (i.e. bactericidal effect) in vitro, PK properties, food effect, safety/toxicity (including liver toxicity, coagulation, 5-LO oxygenase), metabolic stability, Ames II negativity, MNT negativity, aqueous based solubility (and ability to formulate) and/or cardiovascular effect e.g. on animals (e.g. anesthetized guinea pig). Data that is generated/calculated may be obtained using standard methods/assays, for instance that are available in the literature or which may be performed by a supplier (e.g. Microsomal Stability Assay—Cyprotex, Mitochondrial toxicity (Glu/Gal) assay—Cyprotex, as well as literature CYP cocktail inhibition assays). GSH can be measured (reactive metabolites, glucuronidation) to observe if a dihydrodiol is observed by LCMS (fragmentation ions), which would correspond to a dihydroxylation on the core heterocycle.
(§2) CLint Microsomes (μL/Min/Mg) in Dog (d), Human (h), Mouse (m) and Rat (r) (all at 1 μm)

[2] = LM CLint (microsomal stability), human; format: in vitro ADME; conditions: liver microsomes, read-out: CLint Microsomes, Human (h)
Text: as §1, §2

[3] = Mitochondrial toxicity (Glu/Gal) assay; format: cell-based; parameters: Glu/Gal: Glu / Glu/Gal: Gal: unit not given here; conditions: for Glu/Gal: Glu: first value (Glu); for Glu/Gal: Gal: second value (Gal)
[4] = in vitro; format: in vitro ADME; conditions: human, plasma
Text: PPB % Free (Human at 1 μm)

[5] = system: Mycobacterium tuberculosis strain EH4.0 expressing green-fluorescent protein (GFP); experiment: microbe, parasite or virus in culture; format: cell-based; conditions: Mycobacterium tuberculosis; Test 1 (and/or Test 2); M. tuberculosis
[6] = LM CLint (microsomal stability), dog; format: in vitro ADME
Text: as §1, §2

[7] = LM CLint (microsomal stability), rat; format: in vitro ADME
Text: as §1, §2

[8] = AMES II; format: cell-based; conditions: score
Text: as §1

[9] = Chemical stability testing (LCMS); format: physicochemical; conditions: for chemical stability, purity by LCMS: 0.065 mg/mL; for chemical stability, % by LCMS: 30 µM
Experimental: • Add 3 μl of a 10 mM DMSO stock solution to 1 ml of the following solvents in a 1.5 ml HPLC vial. • DMSO (reference solution) • H2O/Acetonitril 1/1 (assay solution) • 0.1N HCl/Acetonitril 1/1 (assay solution) • Mix well, […] LCMS • Compare the chromatograms of the two assay solutions with the reference solution and report the additional peaks as degradation peaks

[10] = system: MDCK; experiment: MDCK permeability (AB+inh, BA/AB); conditions: with inhibitor
[11] = system: M. tuberculosis H37Rv; conditions: M. tuberculosis H37Rv inside macrophages; cited from earlier work
[12] = 1 μm, read-out: CLint Microsomes, Mouse (m)

Compound | microsomal CLint at 1 µM [1, 12] [µL/min/mg] | microsomal CLint at 1 µM [2] [µL/min/mg] | pIC50 ([3]; read-out: IC50, gal) | pIC50 ([3]; read-out: IC50, glu) | fraction unbound at 1 µM [4] | microsomal CLint at 1 µM [1] [µL/min/mg] | Glu/Gal: Glu [3] | Glu/Gal: Gal [3] | AMES II [8] | chemical stability, % by LCMS ([9]; 72 h) [%] | chemical stability, % by LCMS ([9]; 72 h, pH 1.6) [%] | MDCK AB+inh [10] | chemical stability, % by LCMS ([9]; 48 h) [%] | chemical stability, % by LCMS ([9]; 48 h, pH 1.6) [%] | also measured
CCc1nc2ccc(Cl)cn2c1C(=O)NCc1ccc(-c2nc3n(n2)CCN(S(=O)(=O)C(F)(F)F)C3)cc1 [Compound 1] | 49.2 | 30.3 | < 3.70 | < 3.70 | 0.00047 | – | – | – | – | – | – | – | – | – | pIC50 [5]: 8.11
CCc1nc2ncc(Cl)cn2c1C(=O)NCc1ccc(-c2nc3n(n2)CCN(S(=O)(=O)C(F)(F)F)C3)cc1 [Compound 2] | – | – | < 4.00 | < 4.00 | – | < 7.7 | > 100 | > 100 | 1 | 100 | 90.52 | 32.5 | – | – | CLint Microsomes, Dog (d) ([6]; 1 μm): < 7.7 μL/Min/Mg; microsomal CLint at 1 µM ([6]; microsomes): < 7.7 µL/min/mg; CLint Microsomes, Rat (r) ([7]; 1 μm): < 7.7 μL/Min/Mg; microsomal CLint at 1 µM ([7]; microsomes): < 7.7 µL/min/mg; chemical stability, purity by LCMS ([9]; 0 h): 99.56%; chemical stability, purity by LCMS ([9]; 0.25 h): 99.38%; chemical stability, purity by LCMS ([9]; 0.5 h): 99.21%; chemical stability, purity by LCMS ([9]; 1 h): 98.89%; chemical stability, purity by LCMS ([9]; 2 h): 98.28%; chemical stability, purity by LCMS ([9]; 4 h): 97.1%
CCc1nc2ncc(C)cn2c1C(=O)NCc1ccc(-c2nc3n(n2)CCN(S(=O)(=O)C(F)(F)F)C3)c(F)c1 [Compound 7] | – | – | < 3.70 | < 3.70 | – | < 7.7 | > 200 | > 200 | – | 100 | 100 | 21.4 | – | – | –
Cc1cnc2nc(C3CC3)c(C(=O)NCc3ccc(-c4nc5n(n4)CCN(S(=O)(=O)C(F)(F)F)C5)cc3)n2c1 [Compound 42] | 20.4 | 47.1 | < 4.60 | < 4.60 | 0.029 | – | – | – | – | – | – | – | 100 | 100 | –
CCc1nc2ncc(C)cn2c1C(=O)NCc1ccc(-c2cc3n(n2)CCN(S(=O)(=O)C(F)(F)F)C3)c(F)c1 [Compound 82] | – | – | < 4.60 | < 4.60 | – | – | > 25 | > 25 | 1 | – | – | 16.2 | 100 | 100 | –
CCc1nc2ccc(Cl)cn2c1C(=O)NCc1ccc(N2CCC(c3ccc(OC(F)(F)F)cc3)CC2)cc1 [Compound Q203, Q203] | – | – | – | – | – | – | – | – | – | – | – | – | – | – | MIC50 [11]: 0.28 nM (≈ 0.156 ng/mL)
